Assay results from patent publication US20120177693A1, “DEEP LUNG PULMONARY DELIVERY OF TREPROSTINIL” (Aradigm Corporation, priority 2008, published 2012).

Tests used:
[1] = Venous plasma pharmacokinetics of inhaled treprostinil via AERx Essence or Nebu-Tec Optineb, 14 healthy male subjects
Experimental: On each of two dosing days, eligible subjects underwent dosing with ^99mTc-labeled treprostinil sodium using either the AERx Essence System or the Nebu-Tec Optineb nebulizer. Following their initial study dose, subjects underwent a washout period of approximately 48 hours before completing a second (crossover) study dose.
Immediately following each study dose, subjects underwent gamma scintigraphy and multiple samplings of venous blood to characterize treprostinil lung deposition and plasma pharmacokinetics.
To evaluate treprostinil plasma pharmacokinetics, 16 venous blood samples were drawn into 7.5 ml Potassium EDTA monovette tubes following each study dose (i.e., Essence and Optineb). Sampling occurred approximately 1 hour prior to dosing and at +2, +3, +5, +7, +10, +15, +20, +30, +60, +90, +120, +180, +240, +300, and +360 minutes after the start of each study dose. Thus, a total of 32 blood samples (˜250 mL) were collected for pharmacokinetic assessment over the two dosing days. Immediately upon sampling the sample was identified with a bar coded label bearing details of study number, subject number, sampling time point, sample type and a unique 9 digit identification number. The sample was separated by centrifugation at 1500×g and 4° C. for 10 minutes. Two equal aliquots of plasma/serum were transferred to 2 polypropylene tubes labelled identically to the original blood sample and stored at approximately −20° C. pending analysis. The time at which samples were taken, received into the separating room and placed in the freezer was recorded in the study documentation.
The pharmacokinetic parameters Cmax, AUCT and AUCI were normalised for the dose delivered to the lung, as determined from the scintigraphy data (Tables 14.2.1.5 & 14.2.1.6).

[2] = male, human, in vivo
[3] = Safety and tolerability of inhaled treprostinil sodium (adverse events, laboratory, vital signs, ECG, spirometry), 14 healthy male subjects
[4] = via Nebu-Tec, Geometric LS means, dose-normalised for the calculated dose to lung (μg)
[5] = via Optineb, Mean, normalised for dose to lung

CCCCC[C@H](O)CC[C@@H]1[C@H]2Cc3cccc(OCC(=O)[O-])c3C[C@H]2C[C@H]1O.[Na+] [treprostinil, (1R,2R,3aS,9aS)-[[2,3,3a,4,9,9a-Hexahydro-2-hydroxyl-1-[(3S)-3-hydroxyoctyl]-1H-benz[f]inden-5-yl]oxy]acetic acid monosodium salt]
Tmax ([1]; via AERx, Min): 7.02 min
Vz_F_obs ([1]; via AERx, Min): 21692.705 mL
Dose-normalised AUCI [1, 4]: 0.028 ng·h/mL
Dose-normalised AUCT [1, 4]: 0.027 ng·h/mL
Dose-normalised Cmax [1, 4]: 0.037 ng/mL
Cmax_D ([1]; via Optineb, GM): 0.037 ng/mL/µg
Vz_F_obs ([1]; via Optineb, GM): 32721.114 mL
AUCINF—obs ([1]; via Optineb, Max): 0.852 ng·h/mL
AUClast ([1]; via Optineb, Max): 0.816 ng·h/mL
Cmax ([1]; via Optineb, Max): 1.559 ng/mL
Cmax_D ([1]; via Optineb, Max): 0.069 ng/mL/µg
T1/2 ([1]; via Optineb, Max): 66.42 min
Tmax ([1]; via Optineb, Max): 20 min
Vz_F_obs ([1]; via Optineb, Max): 92051.057 mL
AUCINF_obs_D (dose normalised AUCI) [1, 5]: 0.030 ng·h/mL/µg
AUClast_D (dose normalised AUCT) [1, 5]: 0.029 ng·h/mL/µg
Cmax_D (dose normalised Cmax) [1, 5]: 0.041 ng/mL/µg
Cmax_D ([1]; via Optineb, Median): 0.037 ng/mL/µg
Vz_F_obs ([1]; via Optineb, Median): 32525.036 mL
AUCINF—obs ([1]; via Optineb, Min): 0.360 ng·h/mL
AUClast ([1]; via Optineb, Min): 0.315 ng·h/mL
Cmax ([1]; via Optineb, Min): 0.312 ng/mL
Cmax_D ([1]; via Optineb, Min): 0.017 ng/mL/µg
T1/2 ([1]; via Optineb, Min): 25.6 min
Tmax ([1]; via Optineb, Min): 4.98 min
Vz_F_obs ([1]; via Optineb, Min): 16866.083 mL
Adverse events considered possibly related to the study medication [2]: 15
Adverse events considered probably related to study medication [2]: 11
Adverse events considered unlikely related to the study medication [2]: 1
Adverse events recorded as mild in intensity [2]: 23
Adverse events recorded as moderate in intensity [2]: 4
Number of Subjects (% brackets) with CHEST DISCOMFORT [2]: 2 (14.3)
Number of Subjects (% brackets) with COUGH [2]: 6 (42.9)
Number of Subjects with CHEST DISCOMFORT, relationship POSSIBLE [2]: 1
Number of Subjects with CHEST DISCOMFORT, relationship PROBABLE [2]: 1
Number of Subjects with CHEST DISCOMFORT, relationship UNLIKELY [2]: 0
Number of Subjects with COUGH, relationship UNLIKELY [2]: 0
Number of Subjects with DIZZINESS, relationship POSSIBLE [2]: 2
Number of Subjects with DIZZINESS, relationship PROBABLE [2]: 0
Number of Subjects with DIZZINESS, relationship UNLIKELY [2]: 0
Number of Subjects with DRY THROAT, relationship POSSIBLE [2]: 1
Number of Subjects with DRY THROAT, relationship PROBABLE [2]: 0
Number of Subjects with DRY THROAT, relationship UNLIKELY [2]: 0
Number of Subjects with DYSPNOEA, relationship POSSIBLE [2]: 0
Number of Subjects with DYSPNOEA, relationship PROBABLE [2]: 1
Number of Subjects with DYSPNOEA, relationship UNLIKELY [2]: 0
Number of Subjects with HEADACHE, relationship PROBABLE [2]: 0
Number of Subjects with HEADACHE, relationship UNLIKELY [2]: 0
Number of Subjects with PHARYNG[…], relationship POSSIBLE [2]: 1
Number of Subjects with PHARYNG[…], relationship PROBABLE [2]: 0
Number of Subjects with PHARYNG[…], relationship UNLIKELY [2]: 0
Number of Subjects with PLEURITIC PAIN, relationship POSSIBLE [2]: 0
Number of Subjects with PLEURITIC PAIN, relationship PROBABLE [2]: 1
Number of Subjects with PLEURITIC PAIN, relationship UNLIKELY [2]: 0
Number of Subjects with SYNCOPE VASOVAGAL, relationship POSSIBLE [2]: 1
Number of Subjects with SYNCOPE VASOVAGAL, relationship PROBABLE [2]: 0
Number of Subjects with SYNCOPE VASOVAGAL, relationship UNLIKELY [2]: 0
Total treatment emergent adverse events [2]: 27
Vaso-vegal episode, duration [2]: 14 min
Vaso-vegal episode, time of occurrence after administration [2]: 22 min
Changes in laboratory parameters ([3]; biochemistry, hematology, urinalysis): no clinically-significant changes
Serious Adverse Events (SAE's) or Suspected Unexpected Serious Adverse Reactions (SUSAR's) ([3]; both devices): no Serious Adverse Events
Tolerability in healthy subjects ([3]; for inhalation): well-tolerated
Changes in laboratory parameters, physical examination, vital signs, respiratory function or ECGs ([3]; human, in vivo): no clinically-significant changes
Changes in vital signs (blood pressure, pulse and oral temperature) ([3]; human, in vivo, po): no clinically-significant changes
Number of Subjects (% brackets) with […] ([3]; via AERx Essence): 0
Number of Subjects (% brackets) with […] ([3]; via Nebu-Tec Optineb): 1 (7.1)
Number of Subjects with […], relationship POSSIBLE ([3]; via Nebu-Tec Optineb): 0
Number of Subjects with […], relationship PROBABLE ([3]; via Nebu-Tec Optineb): 0
Number of Subjects with […], relationship UNLIKELY ([3]; via Nebu-Tec Optineb): 1
